What was measured:
[1] = test system: TERRA (unlabelled) (RNA, G4) UUAGGGUUAGGGUUAGGGUUAGGG; assay: fluorescence polarization, displacement of TRF2 GAR peptide; conditions: 150 mM KCl, NaCl or LiCl (salt not specified); 20 mM HEPES; 20 mM HEPES pH 7.5, room temperature; FITC-TRF2 GAR peptide 10 nM displaced; 5 μM oligo
LOX cells [2] = assay: Metaphase telomere FISH in LOX cells; type: cell-based, human; conditions: 2 μM, 3 days
Description: Mei et al, 2020 TERRA Requires TRF2 GAR Domain
(§1) Instruments, Inc., Melville, NY) with ImagePro Plus software (Media Cybernetics, Silver Spring, MD) for image processing. Cells with > 5 53BP1/γH2AX foci co-localizing with telomere DNA foci were scored as positive for TIF. The quantification was generated from at least three independent Immuno-FISH experiments.
FISH analysis on metaphase spreads was performed as previously described 5. Briefly, LOX cells were treated with indicated chemicals (2 µM) for 3 days in a 37 °C CO2 incubator. LOX TRF2∆B cells were cultured in the absence (-) or presence (+) of 1 µg/ml doxycycline for 20 days in 37 °C incubator. Colcemid (0.1 mg/ml; GIBCO) was then added to cells and incubated for 4 hrs to accumulate mitotic cells. Cells were collected by trypsinization and suspended in 75 mM KCl hypotonic solution at 37 °C for 25 min before fixation in fresh 3:1 methanol/acetic acid for 4-5 times. Fixed cells were dropped onto cold, wet glass microscope slides and allowed to dry slowly in a humid environment. Metaphase chromosome spreads were fixed in 4% paraformaldehyde in 1x PBS for 3 min, dehydrated in ethanol series [70%, 95%,100% (vol/vol)], and air-dried. Slides were denatured for 5 min at 81 °C in hybridization mix [70% (vol/vol) formamide, 10 mM Tris·HCl (pH 7.2), and 0.5% blocking solution (Roche)] containing telomeric PNA-Cy3-(CCCTAA)3 probe (PNA Bio). […]

TERRA = assay: CD spectroscopy of TERRA mixed with compound; conditions: 1:1 molar ratio, 150 mM KCl buffer
Description: All nucleic acids were dissolved in buffer containing 20 mM HEPES pH7.5, 150 mM salt (KCl or LiCl), 20% PEG8000 at the concentration of 10 μM for experiments. A J-815 spectrometer equipped with a PFD-425S Peltier cell holder was used to measure CD spectra at 4 °C between 200 and 340 nm to determine the secondary structure content of various oligo constructs. The molar ellipticity was calculated and the plot was made using Excel.

[3] = test system: TERRA (5'-fluorescein) (RNA, G4) UUAGGGUUAGGGUUAGGGUUAGGG; assay: fluorescence polarization; conditions: 150 mM KCl, NaCl or LiCl (salt not specified); 20 mM HEPES; 20 mM HEPES pH 7.5, room temperature, tRNA competitor added, 10 nM probe; apparent
LOX cells [4] = assay: TIF assay (IF FISH, γH2AX or 53BP1 with telomere DNA) in LOX cells; type: cell-based, human; conditions: 2 μM, 3 days
Description: Mei et al, 2020 TERRA Requires TRF2 GAR Domain […]
Indirect immunofluorescence (IF) combined with fluorescence in situ hybridization (FISH) analysis for telomere dysfunction was performed as described 4 with some modifications. Briefly, cells grown on coverslips were fixed for 15 min in 2% paraformaldehyde/1x PBS at RT, followed by permeabilization for 10 min in 1x PBS/0.5% Triton X-100 at RT. After washing with 1x PBS, cells were incubated for 60 min in blocking solution (0.5% BSA, 0.2% fish gelatin, 0.1% Triton X-100, 1 mM EDTA in 1x PBS) before immuno-staining. Primary antibodies were prepared in blocking solution at following dilutions: anti-53BP1 (1:500, IHC-00001; Bethyl Laboratories) and γH2AX (1:2,000, A300-081A; Bethyl Laboratories). After IF, cells were fixed in 4% paraformaldehyde in 1x PBS for 10 min, washed in 1x PBS, dehydrated in ethanol series (70%, 95%, 100%), and air-dried. Coverslips were denatured for 5 min at 80-85° C in hybridization mix [70% formamide, 10 mM Tris-HCl, pH 7.2, and 0.5% blocking solution (Roche)] containing telomeric PNA-Cy3-(CCCTAA)3 probe, and hybridization was continued for 2 hrs at room temperature in the dark moisturized chambers. Coverslips were washed twice for 15 min each with 70% formamide, 10 mM Tris-HCl (pH 7.2), and 0.1% BSA, and followed by three washes for 5 min each with 0.15 M NaCl, 0.1 M Tris-HCl (pH 7.2), and 0.08% Tween-20. Nuclei were counterstained with 0.1 µg/ml DAPI in blocking solution and coverslips mounted with VectorShield (Vector Laboratories). RNA FISH was performed as previously described 1.
Images were captured with a 100x lens on a Nikon E600 Upright microscope (Nikon […]
as §1, with “experiments. […]” for “experiments.”
0.1 μg/mL DAPI in 1x PBS and slides were mounted with VectorShield (Vector Laboratories).
Images were taken with a 100x lens on a Nikon E600 Upright microscope (Nikon Instruments) using ImagePro Plus software (Media Cybernetics) for image processing. Statistical analysis was performed using two-tailed Student t Test.

| SMILES | IC50 [1] [nM] | frequency of telomere aberrations incl. fragile telomere doublets (LOX cells [2]) | alteration of CD spectrum of TERRA at major peak (~260 nm) (TERRA) | EC50 [3] [nM] | increase in telomere-associated γH2AX compared to PP treatment (LOX cells [4]) | level of γH2AX or 53BP1 associated telomere dysfunction-induced foci (TIFs) (LOX cells [4]) |
| --- | --- | --- | --- | --- | --- | --- |
| CN(C)c1ccc(Nc2c3ccc(NC(=O)CCN4CCCC4)cc3nc3cc(NC(=O)CCN4CCCC4)ccc23)cc1 [BRACO-19] | 240 | increased the frequency of telomere aberrations | not BRACO-19 or PP altered the CD spectrum | 7400 | ~ three fold increase | moderate level |
| CCc1c(C)c2cc3nc(cc4nc(cc5c(CC)c(C)c(cc1[nH]2)n5C)C(C)=C4CCC(=O)O)C(CCC(=O)O)=C3C [NMM, N-methyl mesoporphyrin IX] | 420 | increased the frequency of telomere aberrations | altered the CD spectrum of TERRA | 680 | ~ fivefold increase | high level |

Reference: publication PMC7876106 (Scientific Reports, 2021)
